This note sets out measurements from US20120220562A1, “Anti-Viral Compounds” (ABBOTT LABAORATORIES, priority 2011, published 2012).

This test has as its system HCV 1b-Con1 replicon. The experiment in a line: HCV 1b-Con1 replicon assay in the presence of 5% FBS. Format: cell-based. Conditions: Hepatitis C virus. In general terms: In antiviral work, replicon cells carry a viral genome segment that copies itself.

With `COC(=O)N[C@H](C(=O)N1[C@H](c2nc3cc([C@H]4CC[C@H](c5cc6nc([C@@H]7C[C@@H]8CCC[C@@H]8N7C(=O)[C@@H](NC(=O)OC)[C@@H](C)OC)[nH]c6cc5F)N4c4cc(F)c(N5CCCCC5)c(F)c4)c(F)cc3[nH]2)C[C@@H]2CCC[C@@H]21)[C@@H](C)OC` [Example 3.38, methyl {(2S,3R)-1-[(2S,3aS,6aS)-2-{5-[(2R,5R)-1-[3,5-difluoro-4-(piperidin-1-yl)phenyl]-5-(6-fluoro-2-{(2S,3aS,6aS)-1-[N-(methoxycarbonyl)-O-methyl-L-threonyl]octahydrocyclopenta[b]pyrrol-2-yl}-1H-benzimidazol-5-yl)pyrrolidin-2-yl]-6-fluoro-1H-benzimidazol-2-yl}hexahydrocyclopenta[b]pyrrol-1(2H)-yl]-3-methoxy-1-oxobutan-2-yl}carbamate], the EC50 (as a rule, the concentration that produces a half-maximal response) was less than 0.1 nM. As for `COC(=O)N[C@H](C(=O)N1CCC[C@H]1c1nc2cc([C@H]3CC[C@H](c4cc5nc([C@@H]6CCCN6C(=O)[C@@H](NC(=O)OC)C6CCCC6)[nH]c5cc4F)N3c3cc(F)c(N4CCCCC4)c(F)c3)c(F)cc2[nH]1)C1CCCC1` [Example 3.39, dimethyl ({(2R,5R)-1-[3,5-difluoro-4-(piperidin-1-yl)phenyl]pyrrolidine-2,5-diyl}bis{(6-fluoro-1H-benzimidazole-5,2-diyl)(2S)pyrrolidine-2,1-diyl[(1S)-1-cyclopentyl-2-oxoethane-2,1-diyl]})biscarbamate], the figure is less than 0.1 nM. As for `COC(=O)N[C@H](C(=O)N1[C@H](c2nc3cc([C@H]4CC[C@H](c5cc6nc([C@@H]7C[C@@H]8CCC[C@@H]8N7C(=O)[C@@H](NC(=O)OC)C7CCCC7)[nH]c6cc5F)N4c4cc(F)c(N5CCCCC5)c(F)c4)c(F)cc3[nH]2)C[C@@H]2CCC[C@@H]21)C1CCCC1` [Example 3.40, dimethyl ({(2R,5R)-1-[3,5-difluoro-4-(piperidin-1-yl)phenyl]pyrrolidine-2,5-diyl}bis{(6-fluoro-1H-benzimidazole-5,2-diyl)(2S,3aS,6aS)hexahydrocyclopenta[b]pyrrole-2,1(2H)-diyl[(1S)-1-cyclopentyl-2-oxoethane-2,1-diyl]})biscarbamate], the figure is less than 0.1 nM. Then `COC(=O)N[C@H](C(=O)N1[C@H](c2nc3cc([C@H]4CC[C@H](c5cc6nc([C@@H]7C[C@@H]8CCC[C@@H]8N7C(=O)[C@@H](NC(=O)OC)C7CCOCC7)[nH]c6cc5F)N4c4cc(F)c(N5CCCCC5)c(F)c4)c(F)cc3[nH]2)C[C@@H]2CCC[C@@H]21)C1CCOCC1` [Example 3.41, dimethyl ({(2R,5R)-1-[3,5-difluoro-4-(piperidin-1-yl)phenyl]pyrrolidine-2,5-diyl}bis{(6-fluoro-1H-benzimidazole-5,2-diyl)(2S,3aS,6aS)hexahydrocyclopenta[b]pyrrole-2,1(2H)-diyl[(1S)-2-oxo-1-(tetrahydro-2H-pyran-4-yl)ethane-2,1-diyl]})biscarbamate], with less than 0.1 nM; and `COC(=O)N[C@H](C(=O)N1CCC[C@H]1c1nc2cc([C@H]3CC[C@H](c4ccc5[nH]c([C@@H]6CCCN6C(=O)[C@@H](NC(=O)OC)C(C)C)nc5c4)N3c3cc(F)c(N4CCC(c5ccc(F)cc5)CC4)c(F)c3)ccc2[nH]1)C(C)C` [Example 3.42, methyl {(2S)-1-[(2S)-2-{5-[(2R,5R)-1-{3,5-difluoro-4-[4-(4-fluorophenyl)piperidin-1-yl]phenyl}-5-{2-[(2S)-1-{(2S)-2-[(methoxycarbonyl)amino]-3-methylbutanoyl}pyrrolidin-2-yl]-1H-benzimidazol-5-yl}pyrrolidin-2-yl]-1H-benzimidazol-2-yl}pyrrolidin-1-yl]-3-methyl-1-oxobutan-2-yl}carbamate], with less than 0.1 nM.
